The test has as its target T1, human PD-1 / PD-L1-Ig binding on Jurkat cell line over-expressing human PD-1 (Jurkat-PD-1) (Homo sapiens, UniProt Q15116).
T1 construct: expressed in transfected cells; host or cells: Jurkat
Nature of the test: Jurkat-PD-1 Cell Binding High-Content Screening Assay (CBA). The test is classed as cell-based. The following applies: Jurkat-PD-1 cells, PE-labeled PD-L1-Ig 20 nM final; read-out: Jurkat HPD1_PDL1 IC50. The method, boiled down: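 Cell-bound PE-labeled PD-L1-Ig (20 nM final, 1 h) measured by high-content imaging after fixation and Hoechst 33342 counterstain. Compound was applied first for 2 h at 37° C. to Jurkat cells over-expressing human PD-1 in DMEM with 10% FCS.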

Where a SMILES comes first, the peptide text is derived from it. Bridges are numbered along the chain shown (N, C = ends). [ ]: non-standard residue; d: D form. The star is where a group is joined. ξ: configuration not given here. Phe(3-CF3) = N[C@@H](Cc1cccc(C(F)(F)F)c1)C(=O)O; Ala(morpholin-4-yl) = N[C@@H](CN1CCOCC1)C(=O)O; Phe(4-COOH) = N[C@@H](Cc1ccc(C(=O)O)cc1)C(=O)O; Bip = N[C@@H](Cc1ccc(-c2ccccc2)cc1)C(=O)O; Phe(3-Me) = Cc1cccc(C[C@H](N)C(=O)O)c1; 1Nal = N[C@@H](Cc1cccc2ccccc12)C(=O)O; Val(3-OH) = CC(C)(O)[C@H](N)C(=O)O; hArg = N=C(N)NCCCC[C@H](N)C(=O)O; 4Pal = N[C@@H](Cc1ccncc1)C(=O)O; Cha = N[C@@H](CC1CCCCC1)C(=O)O; ξIle = CC[C@H](C)C(N)C(=O)O; Carboxymethyl = O=C(O)C*; Orn = NCCC[C@H](N)C(=O)O; Dab = NCC[C@H](N)C(=O)O; Dap = NC[C@H](N)C(=O)O

T1 sequence (Q15116 25-288): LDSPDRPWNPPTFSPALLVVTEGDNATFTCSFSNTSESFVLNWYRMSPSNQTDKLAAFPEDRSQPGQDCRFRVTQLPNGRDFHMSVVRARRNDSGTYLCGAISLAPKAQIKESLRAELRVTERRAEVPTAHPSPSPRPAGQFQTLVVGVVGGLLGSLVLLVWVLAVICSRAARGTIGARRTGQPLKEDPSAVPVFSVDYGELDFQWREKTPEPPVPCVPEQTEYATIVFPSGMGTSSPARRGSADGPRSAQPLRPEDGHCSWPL

In general, IC50 refers to the concentration at which inhibition is half-maximal. Take `CC(C)C[C@@H]1NC(=O)[C@H](CCN)NC(=O)[C@@H](CC(C)C)NC(=O)[C@H](CCCN)NC(=O)[C@H](Cc2ccc(-c3ccccc3)cc2)NC(=O)[C@H](Cc2ccc(-c3ccccc3)cc2)NC(=O)[C@H](C(C)C)NC(=O)[C@H](Cc2c[nH]c3ccccc23)NC(=O)[C@H](CC(=O)O)NC(=O)[C@H](Cc2ccc(OCC(=O)O)cc2)NC(=O)[C@H](Cc2ccc(OCC(=O)O)cc2)NC(=O)CSC[C@@H](C(=O)N[C@@H](C)C(N)=O)NC(=O)[C@H]([C@@H](C)O)NC(=O)[C@H](C(C)C)NC1=O` [Compound 1246] ({CH2CO}-Y(Carboxymethyl)Y(Carboxymethyl)DWV[Bip][Bip][Orn][dL][Dab]LVTCA-NH2; thioether N-14): the IC50 amounted to 84.4 nM.

`COc1ccc(C[C@@H]2NC(=O)CSC[C@@H](C(=O)N[C@@H](CCN)C(N)=O)NC(=O)[C@H](CCC(=O)O)NC(=O)[C@H](C(C)(C)O)NC(=O)[C@H](CC3CCCCC3)NC(=O)[C@H](CCN)NC(=O)[C@@H](CC(C)C)NC(=O)[C@H](CCCN)NC(=O)[C@H](Cc3ccc(OCC(=O)O)cc3)NC(=O)[C@H](Cc3ccc(-c4ccccc4)cc3)NC(=O)[C@H](Cc3ccc(OCC(=O)O)cc3)NC(=O)[C@H](Cc3cccc(C)c3)NC(=O)[C@H](CC(=O)O)NC(=O)[C@H](Cc3ccc(OCC(=O)O)cc3)NC2=O)cc1` [Compound 2692] ({CH2CO}-Y(Me)Y(Carboxymethyl)D[Phe(3-Me)]Y(Carboxymethyl)[Bip]Y(Carboxymethyl)[Orn][dL][Dab][Cha][Val(3-OH)]EC[Dab]-NH2; thioether N-14): the 50% inhibitory concentration (IC50) was 4.7 nM.

Regarding `CC[C@H](C)C1NC(=O)[C@H](Cc2ccc(-c3ccccc3)cc2)NC(=O)[C@H](C(C)C)NC(=O)[C@H](Cc2c[nH]c3ccccc23)NC(=O)[C@H](CC(N)=O)NC(=O)[C@H](Cc2ccc(O)cc2)NC(=O)[C@H](CN)NC(=O)CSC[C@@H](C(=O)N[C@@H](C)C(N)=O)NC(=O)[C@H]([C@@H](C)O)NC(=O)[C@H](C(C)C)NC(=O)[C@H](CC(C)C)NC(=O)[C@H](CCN)NC(=O)[C@@H](CC(C)C)NC(=O)[C@H](CN)NC1=O` (stereo partly drawn) [Compound 1089] ({CH2CO}-[Dap]YNWV[Bip][ξIle][Dap][dL][Dab]LVTCA-NH2; thioether N-14), the IC50 came to 26.7 nM.

For the compound `CC(C)[C@@H]1NC(=O)[C@H](Cc2c[nH]c3ccccc23)NC(=O)[C@H](CC(=O)O)NC(=O)[C@H](Cc2ccncc2)NC(=O)[C@H](CN)NC(=O)CSC[C@@H](C(=O)N[C@@H](C)C(N)=O)NC(=O)[C@H]([C@@H](C)O)NC(=O)[C@H](C(C)C)NC(=O)[C@H](CC2CCCCC2)NC(=O)[C@H](CCN)NC(=O)[C@@H](Cc2ccc(O)cc2)NC(=O)[C@H](CCCN)NC(=O)[C@H](CCC(=O)O)NC(=O)[C@H](Cc2ccc(-c3ccccc3)cc2)NC1=O` [Compound 1446] ({CH2CO}-[Dap][4Pal]DWV[Bip]E[Orn][dY][Dab][Cha]VTCA-NH2; thioether N-14), the 50% inhibitory concentration (IC50) turned out to be 64.5 nM.

Turning to `CC(C)[C@@H]1NC(=O)[C@H](Cc2c[nH]c3ccccc23)NC(=O)[C@H](CC(=O)O)NC(=O)[C@H](Cc2ccc(OCC(=O)O)cc2)NC(=O)[C@H](CCCCNC(=N)N)NC(=O)CSC[C@@H](C(=O)N[C@@H](CC(N)=O)C(N)=O)NC(=O)[C@H](CO)NC(=O)[C@H](C(C)C)NC(=O)[C@H](CC2CCCCC2)NC(=O)[C@H](CCN)NC(=O)[C@@H](C)NC(=O)[C@H](CCCN)NC(=O)[C@H](CC(N)=O)NC(=O)[C@H](Cc2ccc(-c3ccccc3)cc2)NC1=O` [Compound 2554] ({CH2CO}-[hArg]Y(Carboxymethyl)DWV[Bip]N[Orn][dA][Dab][Cha]VSCN-NH2; thioether N-14), the 50% inhibitory concentration (IC50) came to 16.9 nM.

For `CC(C)C[C@H]1NC(=O)[C@H](CCCN)NC(=O)[C@H](Cc2ccc(C(=O)O)cc2)NC(=O)[C@H](Cc2ccc(-c3ccccc3)cc2)NC(=O)[C@H](Cc2cccc3ccccc23)NC(=O)[C@H](Cc2cccc(C(F)(F)F)c2)NC(=O)[C@H](CC(=O)O)NC(=O)[C@H](Cc2ccc(C(=O)O)cc2)NC(=O)[C@H](CN2CCOCC2)NC(=O)CSC[C@@H](C(=O)N[C@@H](CCN)C(N)=O)NC(=O)[C@H](CCC(=O)O)NC(=O)[C@H](C(C)C)NC(=O)[C@H](CC2CCCCC2)NC(=O)[C@H](CCN)NC1=O` [Example 2737] ({CH2CO}-[Ala(morpholin-4-yl)][Phe(4-COOH)]D[Phe(3-CF3)][1Nal][Bip][Phe(4-COOH)][Orn][dL][Dab][Cha]VEC[Dab]-NH2; thioether N-14), the half-maximal inhibitory concentration (IC50) is 5.4 nM.

Take `CC[C@H](C)[C@@H]1NC(=O)[C@H](Cc2ccc(-c3ccccc3)cc2)NC(=O)[C@H](C(C)C)NC(=O)[C@H](Cc2c[nH]c3ccccc23)NC(=O)[C@H](CC(=O)O)NC(=O)[C@H](Cc2ccc(O)cc2)NC(=O)[C@H](CC(N)=O)NC(=O)CSC[C@@H](C(=O)N[C@@H](C)C(N)=O)NC(=O)[C@H](CO)NC(=O)[C@H](C(C)C)NC(=O)[C@H](CC(C)C)NC(=O)[C@H](CCN)NC(=O)[C@@H](CC(C)C)NC(=O)[C@H](CCCN)NC1=O` [Compound 1118] ({CH2CO}-NYDWV[Bip]I[Orn][dL][Dab]LVSCA-NH2; thioether N-14): the IC50 came out at 23.1 nM.

For the origin of these results see patent US20250163104A1, “MACROCYCLIC IMMUNOMODULATORS” (priority 2021, published 2025).
